Patent publication US6737383B1, “Herbicidal oxadiazolidines” (priority 1999, dated 2004)

Key:
blackgrass = assay: Test B pre/postemergence blackgrass; assay type: in vivo, Alopecurus myosuroides
Method in brief: (§1)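 Test chemicals in a non-phytotoxic solvent mixture with surfactant were sprayed preemergence onto planted seeds and postemergence onto plants 2 to 18 cm tall (1- to 4-leaf stage). After twelve to sixteen days in a greenhouse, injury was visually rated against untreated controls from 0 (no effect) to 10 (complete control).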

purple nutsedge = assay: Test B pre/postemergence purple nutsedge; assay type: in vivo, Cyperus rotundus
Method in brief: as §1

duck salad = assay: Test B flood test duck salad; assay type: in vivo, Heteranthera limosa
Method in brief: (§2)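 Plants were grown to the 2-leaf stage before treatment with test chemical, then held in a greenhouse for twelve to sixteen days. Injury was visually rated against untreated controls on a 0–10 scale, where 0 is no effect and 10 is complete control.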

smallflower flatsedge = assay: Test B flood test smallflower flatsedge; assay type: in vivo, Cyperus difformis; conditions: for S. Flatsedge plant response rating: scale of 0 to 10 where 0 is no effect and 10 is complete control
Method in brief: as §2

bamyardgrass = assay: Test B flood test barnyardgrass; assay type: in vivo, Echinochloa crus-galli
Method in brief: as §2

bedstraw = assay: Test B pre/postemergence bedstraw; assay type: in vivo, Galium aparine
Method in brief: as §1

wheat = assay: Test B pre/postemergence wheat; assay type: in vivo, Triticum aestivum
Method in brief: as §1

soybean = assay: Test B pre/postemergence soybean; assay type: in vivo, Glycine max
Method in brief: as §1

corn = assay: Test B pre/postemergence corn; assay type: in vivo, Zea mays
Method in brief: as §1

wild oat = assay: Test B pre/postemergence wild oat; assay type: in vivo, Avena fatua
Method in brief: as §1

sugar beet = assay: Test B pre/postemergence sugar beet; assay type: in vivo, Beta vulgaris
Method in brief: as §1

velvetleaf = assay: Test B pre/postemergence velvetleaf; assay type: in vivo, Abutilon theophrasti
Method in brief: as §1

cocklebur = assay: Test B pre/postemergence cocklebur; assay type: in vivo, Xanthium strumarium
Method in brief: as §1

rape = assay: Test B pre/postemergence rape; assay type: in vivo, Brassica napus
Method in brief: as §1

crabgrass = assay: Test B pre/postemergence crabgrass; assay type: in vivo, Digitaria sanguinalis
Method in brief: as §1

surinam grass = assay: Test B pre/postemergence surinam grass; assay type: in vivo, Brachiaria decumbens
Method in brief: as §1

rice = assay: Test B flood test rice; assay type: in vivo, Oryza sativa
Method in brief: as §2

[1] = Postemergence, Rate 125 g/ha, scale of 0 to 10 where 0 is no effect and 10 is complete control
[2] = Preemergence, Rate 31 g/ha, visual rating, scale 0 to 10 (0 no effect, 10 complete control)
[3] = Preemergence, Rate 62 g/ha, scale 0 to 10 (0 no effect, 10 complete control)
[4] = Preemergence, Rate 125 g/ha, 0 is no effect, 10 is complete control
[5] = Preemergence, Rate 250 g/ha, scale 0 to 10, 0 is no effect, 10 is complete control
[6] = Rate 31 g/ha, Postemergence, scale 0 to 10
[7] = Rate 62 g/ha, Postemergence, scale of 0 to 10 where 0 is no effect and 10 is complete control
[8] = Rate 250 g/ha, Postemergence, scale 0 to 10, 0 is no effect, 10 is complete control
[9] = Postemergence (flood test species), Rate 125 g/ha, scale of 0 to 10 where 0 is no effect and 10 is complete control
[10] = Rate 31 g/ha, Postemergence section (flood test species), scale 0 to 10
[11] = Rate 62 g/ha, Postemergence section, flood test species, scale of 0 to 10 where 0 is no effect and 10 is complete control
[12] = Rate 250 g/ha, Postemergence (flood test), scale 0 to 10, 0 is no effect, 10 is complete control

Cc1noc(C)c1-n1c(=O)on(C(=O)N(c2ccc(F)cc2)C(C)C)c1=O [Compound 155]
0: Blackgrass plant response rating (blackgrass; [1]) | Blackgrass plant response rating (blackgrass; [2]) | Blackgrass plant response rating (blackgrass; [3]) | Blackgrass plant response rating (0 to 10 scale) (blackgrass; [4]) | Blackgrass plant response rating (blackgrass; [6]) | Blackgrass plant response rating (blackgrass; [7]) | Nutsedge plant response rating (purple nutsedge; [1]) | Nutsedge plant response rating (purple nutsedge; [2]) | Nutsedge plant response rating (purple nutsedge; [3]) | Nutsedge plant response rating (0 to 10 scale) (purple nutsedge; [4]) | Nutsedge plant response rating (purple nutsedge; [5]) | Nutsedge plant response rating (purple nutsedge; [6]) | Nutsedge plant response rating (purple nutsedge; [7]) | Plant response rating, Nutsedge (purple nutsedge; [8]) | Ducksalad plant response rating (duck salad; [9]) | Ducksalad plant response rating (duck salad; [10]) | Ducksalad plant response rating (duck salad; [11]) | Plant response rating, Ducksalad (duck salad; [12]) | S. Flatsedge plant response rating (smallflower flatsedge; Postemergence (flood test species), Rate 125 g/ha) | S. Flatsedge plant response rating (smallflower flatsedge; Rate 62 g/ha, Postemergence section, flood test species) | Plant response rating, S. Flatsedge (smallflower flatsedge; [12]) | Barnyardgrass plant response rating (bamyardgrass; [9]) | Barnyardgrass plant response rating (bamyardgrass; [10]) | Barnyardgrass plant response rating (bamyardgrass; [11]) | Plant response rating, Barnyardgrass (bamyardgrass; [12]) | Bedstraw plant response rating (bedstraw; [1]) | Bedstraw plant response rating (bedstraw; [2]) | Bedstraw plant response rating (bedstraw; [3]) | Bedstraw plant response rating (0 to 10 scale) (bedstraw; [4]) | Bedstraw plant response rating (bedstraw; [5]) | Bedstraw plant response rating (bedstraw; [6]) | Bedstraw plant response rating (bedstraw; [7]) | Plant response rating, Bedstraw (bedstraw; [8]) | Wheat plant response rating (wheat; [2]) | Wheat plant response rating (wheat; [3]) | Wheat plant response rating (0 to 10 scale) (wheat; [4]) | Wheat plant response rating (wheat; [5]) | Wheat plant response rating (wheat; [7]) | Plant response rating, Wheat (wheat; [8]) | Soybean plant response rating (soybean; [2]) | Soybean plant response rating (soybean; [3]) | Soybean plant response rating (0 to 10 scale) (soybean; [4]) | Soybean plant response rating (soybean; [5]) | Corn plant response rating (corn; [1]) | Corn plant response rating (corn; [2]) | Corn plant response rating (corn; [3]) | Corn plant response rating (0 to 10 scale) (corn; [4]) | Corn plant response rating (corn; [5]) | Corn plant response rating (corn; [6]) | Corn plant response rating (corn; [7]) | Wild oats plant response rating (wild oat; [2]) | Wild oats plant response rating (wild oat; [3]) | Wild oats plant response rating (0 to 10 scale) (wild oat; [4]) | Wild oats plant response rating (wild oat; [5]) | Wild oats plant response rating (wild oat; [7]) | Plant response rating, Wild oats (wild oat; [8]) | Sugarbeets plant response rating (sugar beet; [1]) | Sugarbeets plant response rating (sugar beet; [2]) | Sugarbeets plant response rating (sugar beet; [3]) | Sugarbeets plant response rating (0 to 10 scale) (sugar beet; [4]) | Sugarbeets plant response rating (sugar beet; [5]) | Sugarbeets plant response rating (sugar beet; [7]) | Plant response rating, Sugarbeets (sugar beet; [8]) | Velvetleaf plant response rating (velvetleaf; [2]) | Velvetleaf plant response rating (velvetleaf; [3]) | Velvetleaf plant response rating (0 to 10 scale) (velvetleaf; [4]) | Velvetleaf plant response rating (velvetleaf; [5]) | Velvetleaf plant response rating (velvetleaf; [7]) | Plant response rating, Velvetleaf (velvetleaf; [8]) | Cocklebur plant response rating (cocklebur; [1]) | Cocklebur plant response rating (cocklebur; [2]) | Cocklebur plant response rating (cocklebur; [3]) | Cocklebur plant response rating (0 to 10 scale) (cocklebur; [4]) | Cocklebur plant response rating (cocklebur; [5]) | Cocklebur plant response rating (cocklebur; [6]) | Cocklebur plant response rating (cocklebur; [7]) | Plant response rating, Cocklebur (cocklebur; [8]) | Rape plant response rating (rape; [1]) | Rape plant response rating (rape; [2]) | Rape plant response rating (rape; [3]) | Rape plant response rating (0 to 10 scale) (rape; [4]) | Rape plant response rating (rape; [5]) | Rape plant response rating (rape; [6]) | Rape plant response rating (rape; [7]) | Plant response rating, Rape (rape; [8]) | Crabgrass plant response rating (crabgrass; [2]) | Crabgrass plant response rating (crabgrass; [3]) | Crabgrass plant response rating (0 to 10 scale) (crabgrass; [4]) | Crabgrass plant response rating (crabgrass; [6]) | B. signalgrass plant response rating (surinam grass; [1]) | B. signalgrass plant response rating (surinam grass; [2]) | B. signalgrass plant response rating (surinam grass; [3]) | B. signalgrass plant response rating (0 to 10 scale) (surinam grass; [4]) | B. signalgrass plant response rating (surinam grass; [5]) | B. signalgrass plant response rating (surinam grass; [6]) | B. signalgrass plant response rating (surinam grass; [7]) | Plant response rating, B. signalgrass (surinam grass; [8]) | Rice plant response rating (rice; [9]) | Rice plant response rating (rice; [10]) | Rice plant response rating (rice; [11]) | Plant response rating, Rice (rice; [12])
2: Blackgrass plant response rating (blackgrass; [5]) | Plant response rating, Blackgrass (blackgrass; [8]) | Plant response rating, Corn (corn; [8]) | Crabgrass plant response rating (crabgrass; [1])
6: Crabgrass plant response rating (crabgrass; [5])
1: Soybean plant response rating (soybean; [1]) | Soybean plant response rating (soybean; [7]) | Plant response rating, Soybean (soybean; [8]) | Crabgrass plant response rating (crabgrass; [7])
8: Plant response rating, Crabgrass (crabgrass; [8])
